B1: IFNγ: inflammatory cytokine, equivalent free dose (protein, UniProt P01580 23-155, looked up)
Interferon gamma: HGTVIESLESLNNYFNSSGIDVEEKSLFLDIWRNWQKDGDMKILQSQIISFYLRLFEVLKDNQAISNNISVIESHLITTFFSNSKAKKDAFMSIAKFEVNNPQVQRQAFNELIRVVHQLLPESSLRKRKRSRC

Columns and labels:
[1] = in vivo; cited from earlier work
[2] = tested on: primary macrophages; test: Primary macrophage polarization by IFNγ-containing particles; format: cell-based; details: compared to controls
Description: FIG. 7 presents exemplary data showing primary macrophage polarization in various conditions.
FIG. 7A: Normoxia (i.e., standard cell culture conditions) without interferon gamma (IFNγ).
FIG. 7B: Normoxia with IFNγ.
FIG. 7C: Tumor-promoting conditions (i.e., in hypoxia (1% 02) and 10 vol. % tumor (4T1)-conditioned media) and bound to IFNγ-containing particles after 24 hrs.
As discussed above, discoidal elastomeric particles can encapsulate inflammatory cytokines (i.e., IFNγ) and polarize the cells to which they are bound. […] Macrophages maintained their polarization for 5 days, even when challenged by hypoxia (1% O2) and tumor-conditioned media (i.e., 10 vol. % tumor (4T1)-conditioned media).

Molecule	maximum tolerated dose (MTD) [1] [mg/kg]	iNOS expression, fold higher [2] [fold]
CC(C)(CNC(=O)c1cccc(-c2noc(C(F)(F)F)n2)c1)c1coc(-c2ccccc2)n1 [TMP195]	50	
CCOCc1nc2c(N)nc3ccccc3c2n1CC(C)(C)O [resiquimod]	5	
B1		1.3

From US20250177529A1, “ACOUSTIC ENRICHMENT OF ADOPTIVE CELL TRANSFERS” (THE REGENTS OF THE UNIVERSITY OF COLORADO, A BODY CORPORATE, priority 2022, published 2025)
